Where a SMILES comes first, the peptide text is derived from it. [ ]: non-standard residue; d: D form. Ac6c = NC1(C(=O)O)CCCCC1; Ac5c = NC1(C(=O)O)CCCC1; Ac4c = NC1(C(=O)O)CCC1; Deg = CCC(N)(CC)C(=O)O; Ac3c = NC1(C(=O)O)CC1; Aib = CC(C)(N)C(=O)O
experiment: Compound is evaluated for sweet potency; -=Bitter

Row | Sweetness potency | SMILES
1 | Bitter | COC(=O)C1(NC(=O)[C@H](C)NC(=O)[C@@H](N)CC(=O)O)CCCCCCC1
2 | Bitter | COC(=O)C1(NC(=O)[C@H](C)NC(=O)[C@@H](N)CC(=O)O)CCCCCC1

experiment: Compound is evaluated for sweet potency; +=Sweet

Row | Sweetness potency | SMILES
3 | Sweet | COC(=O)C1(NC(=O)[C@H](C)NC(=O)[C@@H](N)CC(=O)O)CCCCC1 (H-Asp-Ala-[Ac6c]-OMe)
4 | Sweet | CCC(CC)(NC(=O)[C@H](C)NC(=O)[C@@H](N)CC(=O)O)C(=O)OC (H-Asp-Ala-[Deg]-OMe)
5 | Sweet | COC(=O)C1(NC(=O)[C@H](C)NC(=O)[C@@H](N)CC(=O)O)CCC1 (H-Asp-Ala-[Ac4c]-OMe)
6 | Sweet | COC(=O)C1(NC(=O)[C@H](C)NC(=O)[C@@H](N)CC(=O)O)CCCC1 (H-Asp-Ala-[Ac5c]-OMe)
7 | Sweet | COC(=O)C(C)(C)NC(=O)[C@H](C)NC(=O)[C@@H](N)CC(=O)O (H-Asp-Ala-[Aib]-OMe)
8 | Sweet | COC(=O)C1(NC(=O)[C@H](C)NC(=O)[C@@H](N)CC(=O)O)CC1 (H-Asp-Ala-[Ac3c]-OMe)

From ChEMBL document CHEMBL1122825, “Peptide sweeteners. 8. Synthesis and structure-taste relationship studies of L-aspartyl-D-alanyl tripeptides” (J Med Chem, 1985)
